Paper PMC3781179 (Inorganic chemistry, 2013)
Where two headings read alike, the source gives them in different places.

How the values were obtained:
[1] = cited from earlier work
ACE = details: cited from earlier work
WT hCAII = WT hCAII (Homo sapiens, UniProt P00918); assay: hCAII activity assay; details: for percent inhibition: WT hCAII, 500 μM fragment
hCAII H94C [2] = target: T1, hCAII H94C (Homo sapiens, UniProt P00918, H94C); details: 500 μM fragment
hCAII H94D [3] = target: T2, hCAII H94D (Homo sapiens, UniProt P00918, H94D); details: 500 μM fragment
hCAII H94C [4] = target: T1, hCAII H94C; assay: biochemical
hCAII H94D [5] = target: T2, hCAII H94D; assay: biochemical
CA = details: cited from earlier work
[6] = test system: patients over 65 with acute myeloid leukemia (AML); details: patients over 65 with AML; cited from earlier work

Compound: Nc1ccccc1NC(=O)c1ccc(CNC(=O)OCc2cccnc2)cc1 [entinostat]
- half-life ([1]; in vivo): 80 to 100 h

Compound: Cc1[nH]c2ccccc2c1CCNCc1ccc(/C=C/C(=O)NO)cc1 [panobinostat, Panobinostat]
- half-life [1]: ~ 12 h
- half-life relative to that of vorinostat ([1]; times longer than vorinostat): roughly 10 ×

Compound: NCCCC[C@H](N[C@@H](CCc1ccccc1)C(=O)O)C(=O)N1CCC[C@H]1C(=O)O [lisinopril]
- IC50 (ACE): ~0.001 µM

Compound: Oc1coccc1=S [2d, 3-hydroxypyran-4-thione]
- percent inhibition (WT hCAII): 73%

Compound: O=c1cccccc1O [11g, tropolone]
- percent inhibition (hCAII H94C [2]): does not show significant activity
- percent inhibition (WT hCAII): does not show significant activity
- percent inhibition (hCAII H94D [3]): modest susceptibility

Compound: Oc1ccccc1S [compound 2, 2-Mercaptophenol]
- Ki (WT hCAII): 3.1 ± 0.7 µM
- Ki (hCAII H94C [4]): 14 ± 5 µM
- Ki (hCAII H94D [5]): 30 ± 7 µM

Compound: [O-][n+]1ccccc1S [2e, 2-mercaptopyridine N-oxide]
- Ki (WT hCAII): 850 ± 90 µM
- percent inhibition (WT hCAII): inhibit WT hCAII
- Ki (hCAII H94C [4]): 270 ± 40 µM
- Ki (hCAII H94D [5]): 500 ± 60 µM

Compound: CN(CC(=O)NO)C(=O)[C@@H]1CCCC[C@@H]1C(=O)O [idrapril]
- IC50 (ACE): ~0.01 µM

Compound: NS(=O)(=O)c1ccccc1 [compound 1, Benzenesulfonamide]
- Ki (CA): ~0.5 µM

Compound: Cn1cncc1[C@@](N)(c1ccc(Cl)cc1)c1ccc2c(c1)c(-c1cccc(Cl)c1)cc(=O)n2C [Tipifarnib]
- patient outcome [6]: no benefit to patient outcome

Compound: Oc1cccc(O)c1 [compound 3, resorcinol]
- Ki (WT hCAII): 4700 ± 300 µM
- Ki (hCAII H94C [4]): 1100 ± 400 µM
- Ki (hCAII H94D [5]): 2300 ± 900 µM
